Assay results from patent publication EP4603105A1, “PHARMACEUTICAL COMPOSITION CONTAINING CYCLIC COMPOUND HAVING SELECTIVE KRAS INHIBITORY EFFECT AGAINST HRAS AND NRAS” (CHUGAI SEIYAKU KABUSHIKI KAISHA, priority 2022, dated 2024).
*1 amine or outer side, *2 acyl side, *3 side chain or, on linkers, in order; H or OH if unused. Where a SMILES comes first, the peptide text is derived from it. Bridges are numbered along the chain shown (N, C = ends). [ ]: non-standard residue; d: D form. The star is where a group is joined. X23 = O=C([C@H](Cc1ccc(C(F)(F)F)cc1)N(CC1CCCC1)[*:1])[*:2]; hPhe(3-Cl-4-CF3) = N[C@@H](CCc1ccc(C(F)(F)F)c(Cl)c1)C(=O)O; NPrPhe(4-CF3) = CCCN[C@@H](Cc1ccc(C(F)(F)F)cc1)C(=O)O; NEtAsp = CCN([C@@H](CC(=O)[*:3])C(=O)[*:2])[*:1]; 3Oxa8azabicyclo(3.2.1)octane = C1CC2COCC1N2*; NMePhe(4-Me) = CN[C@@H](Cc1ccc(C)cc1)C(=O)O; NMeGly(cPent) = CN[C@H](C(=O)O)C1CCCC1; Pro(4,4-F2) = O=C(O)[C@@H]1CC(F)(F)CN1; Pro(4,4-Me2) = CC1(C)CN[C@H](C(=O)O)C1; NMeD = CN[C@@H](CC(=O)O)C(=O)O; NMeL = CN[C@@H](CC(C)C)C(=O)O; NMeAbu = CC[C@H](NC)C(=O)O; Morpholide = C1CN(*)CCO1; NMeA = CN[C@@H](C)C(=O)O; NMeAib = CNC(C)(C)C(=O)O; Nle = CCCC[C@H](N)C(=O)O; Piperidide = C1CCN(*)CC1; Ac5c = NC1(C(=O)O)CCCC1; Aze = O=C(O)[C@@H]1CCN1; Ac4c = NC1(C(=O)O)CCC1; Ac3c = NC1(C(=O)O)CC1; Sar = CNCC(=O)O

Key:
[1] = molecular target: GDP-bound NRAS wild-type protein (Homo sapiens, UniProt P01111); assay: Binding to NRAS by surface plasmon resonance (SPR), KD and KD ratio to KRAS
Outline: (§1)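 Measured at 30°C: SPR with GDP-loaded, E. coli-expressed biotin-Avi RAS captured (~100–300 RU), ascending 75 s compound injections, HBS pH 7.4 with GDP, MgCl2, 4% DMSO. KD from 1:1 fit.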

HRAS wild-type protein = HRAS wild-type protein (Homo sapiens, UniProt P01112); assay: Binding to HRAS by surface plasmon resonance (SPR), KD and KD ratio to KRAS
Outline: as §1

[2] = test system: human lung cancer strain NCI-H441; type: cell-based
Outline: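 Signal came from […] measured per well once the reagent was added. Beforehand, cells were cultured at 37°C and 5% carbon dioxide on a compound series serially diluted in dimethyl sulfoxide.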

[3] = ratio of KD value for GDP-bound NRAS wild-type protein to KD value for KRAS (SPR)
[4] = ratio of KD value for HRAS wild-type protein to KD value for KRAS (SPR)
[5] = ratio of the KD value with respect to GDP-bound NRAS wild-type protein to the KD value with respect to KRAS
[6] = ratio of the KD value with respect to HRAS wild-type protein to the KD value with respect to KRAS
[7] = ratio of KD for GDP-bound NRAS wild-type protein to KD for KRAS
[8] = ratio of KD for HRAS wild-type protein to KD for KRAS

Sequence of GDP-bound NRAS wild-type protein (P01111 whole entry): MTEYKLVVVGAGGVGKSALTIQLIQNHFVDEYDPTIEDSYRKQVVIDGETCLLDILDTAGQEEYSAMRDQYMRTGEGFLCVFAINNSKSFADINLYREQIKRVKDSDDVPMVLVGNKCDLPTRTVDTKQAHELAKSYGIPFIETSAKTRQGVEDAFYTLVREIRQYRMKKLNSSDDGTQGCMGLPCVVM
Sequence of HRAS wild-type protein (P01112 whole entry): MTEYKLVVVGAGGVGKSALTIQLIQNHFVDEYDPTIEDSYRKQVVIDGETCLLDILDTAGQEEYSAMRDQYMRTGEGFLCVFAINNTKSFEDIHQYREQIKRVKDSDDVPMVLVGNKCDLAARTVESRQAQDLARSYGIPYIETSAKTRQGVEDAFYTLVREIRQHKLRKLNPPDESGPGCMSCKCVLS

Compound	IC50 [2] [nM]	NRAS /KRAS [1, 3]	HRAS /KRAS (HRAS wild-type protein; [4])	NRAS /KRAS [1, 5]	HRAS /KRAS (HRAS wild-type protein; [6])	NRAS /KRAS [1, 7]	HRAS /KRAS (HRAS wild-type protein; [8])
CCCN1C(=O)[C@@H]2CCN2C(=O)CN(C)C(=O)[C@H]([C@@H](C)CC)NC(=O)[C@H](CC(C)C)N(C)C(=O)C[C@@H](C(=O)N2CCOCC2)N(C)C(=O)[C@H](C2CCCC2)N(C)C(=O)C2(CCCC2)NC(=O)[C@@H]2CC(C)(C)CN2C(=O)[C@H](CCc2ccc(C(F)(F)F)c(Cl)c2)NC(=O)CN(C)C(=O)[C@@H]1Cc1ccc(C(F)(F)F)cc1 [PP0456] ([NMeL]I[Sar][Aze][NPrPhe(4-CF3)][Sar][hPhe(3-Cl-4-CF3)][Pro(4,4-Me2)][Ac5c][NMeGly(cPent)][NMeD]-Morpholide; lactam N-11)	7	–	–	C (A compound having a KD ratio of 0.1 or more and less than 3 is denoted as C)	C (A compound having a KD ratio of 0.1 or more and less than 3 is denoted as C)	–	–
CC[C@H](C)[C@@H]1NC(=O)[C@H](CC(C)C)N(C)C(=O)C[C@@H](C(=O)N2CCOCC2)N(C)C(=O)[C@H](C2CCCC2)N(C)C(=O)C2(CCCC2)NC(=O)[C@@H]2CCCN2C(=O)[C@H](CCc2ccc(C(F)(F)F)c(Cl)c2)NC(=O)CN(C)C(=O)[C@H](Cc2ccc(C(F)(F)F)cc2)N(CC2CCCC2)C(=O)CN(C)C(=O)CN(C)C1=O [PP0124] ([NMeL]I[Sar][Sar][X23][Sar][hPhe(3-Cl-4-CF3)]P[Ac5c][NMeGly(cPent)][NMeD]-Morpholide; lactam N-11)	48.8	–	–	–	–	C (A compound having a KD ratio of 0.1 or more and less than 3 is denoted as C)	C (A compound having a KD ratio of 0.1 or more and less than 3 is denoted as C)
CC[C@H](C)[C@@H]1NC(=O)[C@H](CC2CC2)N(C)C(=O)C[C@@H](C(=O)N(C)C)N(C)C(=O)[C@H](C2CCCC2)N(C)C(=O)C2(CCC2)NC(=O)[C@@H]2CC(F)(F)CN2C(=O)[C@H](CCc2cc(F)c(C(F)(F)F)c(F)c2)NC(=O)CN(C)C(=O)[C@H](Cc2ccc(C(F)(F)F)cc2)N2CC/C=C\C[C@@H](C2=O)N(C)C(=O)CN(C)C1=O [PP1500]	6.9	A (a compound having 10 or more and less than 20 is denoted as A)	A (a compound having 10 or more and less than 20 is denoted as A)	–	–	–	–
CCCN1C(=O)[C@@H]2CCN2C(=O)[C@H](C)N(C)C(=O)[C@H]([C@@H](C)CC)NC(=O)[C@H](CC)N(C)C(=O)C[C@@H](C(=O)N2CCOCC2)N(C)C(=O)[C@H](C2CCCC2)N(C)C(=O)C2(CCCC2)NC(=O)[C@@H]2CC(F)(F)CN2C(=O)[C@H](CCc2ccc(C(F)(F)F)c(Cl)c2)NC(=O)CN(C)C(=O)[C@@H]1Cc1ccc(C(F)(F)F)cc1 [PP0206] ([NMeAbu]I[NMeA][Aze][NPrPhe(4-CF3)][Sar][hPhe(3-Cl-4-CF3)][Pro(4,4-F2)][Ac5c][NMeGly(cPent)][NMeD]-Morpholide; lactam N-11)	2.2	–	–	–	–	C (A compound having a KD ratio of 0.1 or more and less than 3 is denoted as C)	B (a compound having 3 or more and less than 10 is denoted as B)
CCCC[C@@H]1NC(=O)[C@H](CCc2ccc(C(F)(F)F)c(Cl)c2)NC(=O)CN(C)C(=O)[C@H](Cc2ccc(C)cc2)N(C)C(=O)[C@@H]2CCN2C(=O)[C@H](C)N(C)C(=O)[C@H]([C@@H](C)CC)NC(=O)[C@H](CC(C)C)N(C)C(=O)C[C@@H](C(=O)N2CCCCC2)N(C)C(=O)[C@H](CC(C)C)NC(=O)C(C)(C)N(C)C1=O [PP0047] ([NMeL]I[NMeA][Aze][NMePhe(4-Me)][Sar][hPhe(3-Cl-4-CF3)][Nle][NMeAib]L[NMeD]-Piperidide; lactam N-11)	229	–	–	–	–	C (A compound having a KD ratio of 0.1 or more and less than 3 is denoted as C)	C (A compound having a KD ratio of 0.1 or more and less than 3 is denoted as C)
CCCN1C(=O)CN(C)C(=O)CN(C)C(=O)[C@H]([C@@H](C)CC)NC(=O)[C@H](CC(C)C)N(C)C(=O)C[C@@H](C(=O)N2CCCCC2)N(C)C(=O)[C@H](C2CCCC2)N(C)C(=O)C2(CCC2)NC(=O)[C@@H]2CCCN2C(=O)[C@H](CCc2ccc(C(F)(F)F)c(Cl)c2)NC(=O)CN(C)C(=O)[C@@H]1Cc1ccc(C(F)(F)F)cc1 [PP1930] ([NMeL]I[Sar][Sar][NPrPhe(4-CF3)][Sar][hPhe(3-Cl-4-CF3)]P[Ac4c][NMeGly(cPent)][NMeD]-Piperidide; lactam N-11)	7	–	–	B (a compound having 3 or more and less than 10 is denoted as B)	C (A compound having a KD ratio of 0.1 or more and less than 3 is denoted as C)	–	–
CCCN1C(=O)CN(C)C(=O)CN(C)C(=O)[C@H]([C@@H](C)CC)NC(=O)[C@H](CC(C)C)N(C)C(=O)C[C@@H](C(=O)N2CCOCC2)N(C)C(=O)[C@H](C2CCCC2)N(C)C(=O)C2(CC2)NC(=O)[C@@H]2CCCN2C(=O)[C@H](CCc2ccc(C(F)(F)F)c(Cl)c2)NC(=O)CN(C)C(=O)[C@@H]1Cc1ccc(C(F)(F)F)cc1 [PP0229] ([NMeL]I[Sar][Sar][NPrPhe(4-CF3)][Sar][hPhe(3-Cl-4-CF3)]P[Ac3c][NMeGly(cPent)][NMeD]-Morpholide; lactam N-11)	24.7	–	–	–	–	B (a compound having 3 or more and less than 10 is denoted as B)	B (a compound having 3 or more and less than 10 is denoted as B)
CCCN1C(=O)CN(C)C(=O)CN(C)C(=O)[C@H]([C@@H](C)CC)NC(=O)[C@H](CC(C)C)N(C)C(=O)C[C@@H](C(=O)N2C3CCC2COC3)N(C)C(=O)[C@H](C2CCCC2)N(C)C(=O)C2(CCCC2)NC(=O)[C@@H]2CCCN2C(=O)[C@H](CCc2ccc(C(F)(F)F)c(Cl)c2)NC(=O)CN(C)C(=O)[C@@H]1Cc1ccc(C(F)(F)F)cc1 [PP0173] ([NMeL]I[Sar][Sar][NPrPhe(4-CF3)][Sar][hPhe(3-Cl-4-CF3)]P[Ac5c][NMeGly(cPent)][NMeD]-{3Oxa8azabicyclo(3.2.1)octane}; lactam N-11)	11.6	–	–	–	–	B (a compound having 3 or more and less than 10 is denoted as B)	C (A compound having a KD ratio of 0.1 or more and less than 3 is denoted as C)

Now from value to molecule, other results behind:

IC50 [2] [nM]	Compound	NRAS /KRAS [1, 3]	HRAS /KRAS (HRAS wild-type protein; [4])	NRAS /KRAS [1, 5]	HRAS /KRAS (HRAS wild-type protein; [6])	NRAS /KRAS [1, 7]	HRAS /KRAS (HRAS wild-type protein; [8])
6.5	CCO[C@@H]1C[C@H]2C(=O)NC3(CCCC3)C(=O)N(C)[C@@H](C3CCCC3)C(=O)N(C)[C@H](C(=O)N(C)CC)CC(=O)N(C)[C@@H](CC(C)C)C(=O)N[C@@H]([C@@H](C)CC)C(=O)N(C)CC(=O)N(C)[C@H]3C/C=C\CCN(C3=O)[C@@H](Cc3ccc(C(F)(F)F)cc3)C(=O)N(C)CC(=O)N[C@@H](CCc3cc(F)c(C(F)(F)F)c(F)c3)C(=O)N2C1 [PP1574]	A (a compound having 10 or more and less than 20 is denoted as A)	A (a compound having 10 or more and less than 20 is denoted as A)	–	–	–	–
11.1	CCCN(C)C(=O)[C@@H]1CC(=O)N(C)[C@@H](CC(F)F)C(=O)N[C@@H]([C@@H](C)CC)C(=O)N(C)CC(=O)N(C)[C@H]2C/C=C\CCN(C2=O)[C@@H](Cc2ccc(C(F)(F)F)cc2)C(=O)N(C)CC(=O)N[C@@H](CCc2ccc(C(F)(F)F)c(OC)c2)C(=O)N2C[C@@H](C)C[C@H]2C(=O)NC2(CC(C)(C)C2)C(=O)N(C)[C@@H](C2CCCC2)C(=O)N1C [PP1989]	–	–	A (a compound having 10 or more and less than 20 is denoted as A)	A (a compound having 10 or more and less than 20 is denoted as A)	–	–
16.8	CCCN1C(=O)CN(C)C(=O)CNC(=O)[C@H]([C@@H](C)CC)NC(=O)[C@H](CC(C)C)N(C)C(=O)C[C@@H](C(=O)N2CCOCC2)N(CC)C(=O)[C@H](C2CCCC2)N(C)C(=O)C2(CCCC2)NC(=O)[C@@H]2CCCN2C(=O)[C@H](CCc2ccc(C(F)(F)F)c(Cl)c2)NC(=O)CN(C)C(=O)[C@@H]1Cc1ccc(C(F)(F)F)cc1 [PP1970] ([NMeL]IG[Sar][NPrPhe(4-CF3)][Sar][hPhe(3-Cl-4-CF3)]P[Ac5c][NMeGly(cPent)][NEtAsp]-Morpholide; lactam N-11)	–	–	B (a compound having 3 or more and less than 10 is denoted as B)	B (a compound having 3 or more and less than 10 is denoted as B)	–	–
5.8	CC[C@H](C)[C@@H]1NC(=O)[C@H](CC2CCC2)N(C)C(=O)C[C@@H](C(=O)N(C)C)N(C)C(=O)[C@H](C2CCCC2)N(C)C(=O)C2(CCC2)N(C)C(=O)[C@@H]2CCCN2C(=O)[C@H](CCc2cc(F)c(C(F)(F)F)c(F)c2)NC(=O)CN(C)C(=O)[C@H](Cc2ccc(C)cc2)N2CC/C=C\C[C@@H](C2=O)N(C)C(=O)CN(C)C1=O [PP1802]	A (a compound having 10 or more and less than 20 is denoted as A)	B (a compound having 3 or more and less than 10 is denoted as B)	–	–	–	–
74.8	CCC[C@H]1C(=O)N[C@@H]([C@@H](C)CC)C(=O)N(C)CC(=O)N(C)[C@H]2C/C=C\CCN(C2=O)[C@@H](Cc2ccc(C)cc2)C(=O)N(C)CC(=O)N[C@@H](CCc2ccc(C(F)(F)F)c(OC)c2)C(=O)N2CC3(CC3)C[C@H]2C(=O)NC2(CC(C)(C)C2)C(=O)N(C)[C@@H](CC(F)(F)F)C(=O)N(C)[C@H](C(=O)N(C)C)CC(=O)N1C [PP3012]	–	–	–	–	A (a compound having 10 or more and less than 20 is denoted as A)	A (a compound having 10 or more and less than 20 is denoted as A)
9.6	CCC[C@H]1C(=O)N[C@@H]([C@@H](C)CC)C(=O)N(C)CC(=O)N(C)[C@H]2C/C=C\CCN(C2=O)[C@@H](Cc2ccc(C)cc2)C(=O)N(C)CC(=O)N[C@@H](CCc2ccc3sc(F)c(C)c3c2)C(=O)N2C[C@H](OCC)C[C@H]2C(=O)NC2(CC(C)(C)C2)C(=O)N(C)[C@@H](C(CC)CC)C(=O)N(C)[C@H](C(=O)N(C)C)CC(=O)N1C [PP2894]	–	–	–	–	AA (a compound having 20 or more is denoted as AA)	A (a compound having 10 or more and less than 20 is denoted as A)
